Measurements from patent US20110039762A1, “TARGETED ANTIMICROBIAL MOIETIES” (C3 JIAN, INC., priority 2009, published 2011).
“Also recorded” adds a separate entry of the source.

How the values were obtained:
E. faecalis = assay: Kill or inhibit growth/proliferation; morphology, biofilm and growth disruption (Tables 5, 6); assay type: cell-based, Enterococcus faecalis; set-up: key: A: Peptide aggregates; B: Less hyphal formation; Clumps; Diffuse clumps and small polyps; F: Diffuse growth; H: Thin; I: Growth inhibition; Microcolony formation; Rippled; Small polyps; Thick; W: Halo formation on top, microlonies on bottom; note: test concentration or dose not given here
C. jejuni = assay: as above; assay type: cell-based, Campylobacter jejuni; set-up: key: A: Peptide aggregates; B: Less hyphal formation; Clumps; Diffuse clumps and small polyps; F: Diffuse growth; H: Thin; I: Growth inhibition; Microcolony formation; Rippled; Small polyps; Thick; W: Halo formation on top, microlonies on bottom
S. pneumoniae = assay: as above; assay type: cell-based, Streptococcus pneumoniae; set-up: key: A: Peptide aggregates; B: Less hyphal formation; Clumps; Diffuse clumps and small polyps; F: Diffuse growth; H: Thin; I: Growth inhibition; Microcolony formation; Rippled; Small polyps; Thick; W: Halo formation on top, microlonies on bottom
S. epidermidis = assay: as above; assay type: cell-based, Staphylococcus epidermidis; set-up: key: A: Peptide aggregates; B: Less hyphal formation; Clumps; Diffuse clumps and small polyps; F: Diffuse growth; H: Thin; I: Growth inhibition; Microcolony formation; Rippled; Small polyps; Thick; W: Halo formation on top, microlonies on bottom
MRSA = assay: as above; assay type: cell-based, Methicillin-resistant Staphylococcus aureus; set-up: key: A: Peptide aggregates; B: Less hyphal formation; Clumps; Diffuse clumps and small polyps; F: Diffuse growth; H: Thin; I: Growth inhibition; Microcolony formation; Rippled; Small polyps; Thick; W: Halo formation on top, microlonies on bottom; note: test concentration or dose not given here
microorganisms = assay: Peptides having multiple activities (targeting/binding, antimicrobial, growth or phenotype altering)
Description: In certain embodiments, peptides described herein can have multiple activities. Thus for example, a peptide can have both binding/targeting activity and antimicrobial activity. Such peptides can be used, e.g., in a chimeric construct, for any or all of these properties. Thus, for example, a peptide designated “B” in Table 8 can be used as a targeting peptide. If it is also designated G or M it can also be used for antimicrobial activity.

M. luteus = assay: Kill or inhibit growth/proliferation; morphology, biofilm and growth disruption (Tables 5, 6); assay type: cell-based, Micrococcus luteus; set-up: key: A: Peptide aggregates; B: Less hyphal formation; Clumps; Diffuse clumps and small polyps; F: Diffuse growth; H: Thin; I: Growth inhibition; Microcolony formation; Rippled; Small polyps; Thick; W: Halo formation on top, microlonies on bottom; note: test concentration or dose not given here
[1] = system: microorganisms (e.g., bacteria, yeasts, fungi); assay: Targeting peptide binding to target microorganisms (Table 3); settings: preferably 1x PBS; for Target(s): microorganism(s) the targeting peptide binds; for Target(s) (microorganisms bound by the targeting peptide): peptide binding in aqueous buffers varied by peptide solubility
E. coli = assay: Kill or inhibit growth/proliferation; morphology, biofilm and growth disruption (Tables 5, 6); assay type: cell-based, Escherichia coli; set-up: key: A: Peptide aggregates; B: Less hyphal formation; Clumps; Diffuse clumps and small polyps; F: Diffuse growth; H: Thin; I: Growth inhibition; Microcolony formation; Rippled; Small polyps; Thick; W: Halo formation on top, microlonies on bottom; note: test concentration or dose not given here
[2] = binding in aqueous buffers depending on peptide solubility
[3] = peptide binding conducted in aqueous buffers varied by peptide solubility
Throughout, for Organism, effect: test concentration or dose not given here.

Substance	Organism, effect (E. faecalis)	Organism, effect (C. jejuni)	Organism, effect (S. pneumoniae)	Organism, effect (S. epidermidis)	Organism, effect (MRSA)	Activities (microorganisms)	Organism, effect (M. luteus)	Target(s) [1, 2]	Organism, effect (E. coli)	Target(s) [1, 3]	Target(s) (microorganisms bound by the targeting peptide) [1]
DLLKSLLGQDGAKNDEIIEFIKIIMEK [PF-591]	E. faecalis (A)	C. jejuni (C)	S. pneumoniae (R)								
EILNNNQVIKELTMKYKTQFESNLGGWTARARR [PF-580]			S. pneumoniae (C)	S. epidermidis (M)	MRSA (M)	G B	M. luteus (C)				
LMFFSENMDKRDTLSGKFRYFAGSKVIKLMNWLSENGK [PF-226]				S. epidermidis (C)		G B	M. luteus (T)	A. baumannii			
MGIIAGIIKVIKSLIEQFTGK [PF-007]	E. faecalis (A)			S. epidermidis (A)	MRSA (R)	G B	M. luteus (A)		E. coli (A)		
PF-059 (TITLKAGIERALHEEVPGVIEVEQVF; Peptide with targeting and/or antimicrobial activity)		C. jejuni (C)									
PF-125: peptide having multiple activities (YVVGALVILAVAGLIYSMLRKA; Peptide with targeting and/or antimicrobial activity)				S. epidermidis (D)		G B	M. luteus (C)				
PF-276: peptide having multiple activities (LDLALSTNSLNLEGFSF; Peptide with targeting and/or antimicrobial activity)						G B	M. luteus (M)	S. epidermidis			
PF-357: peptide having multiple activities (chain 1 MLTIIIGFIFWTMTLMLGYLIGEREGRKHE; chain 2 MLTIIIGFIFWTMTLMLGYLIGEREGRKHE; Peptide with targeting and/or antimicrobial activity)			S. pneumoniae (M)	S. epidermidis (M)	MRSA (M)	G B	M. luteus (C)				
PF-392: peptide having multiple activities (chain 1 DPAGCNDIVRKYCK; chain 2 DPAGCNDIVRKYCK; Peptide with targeting and/or antimicrobial activity)	E. faecalis (A)	C. jejuni (A)			MRSA (S)	G B				S. epidermidis; also recorded: B. subtilis; also recorded: S. pneumoniae; also recorded: C. jeikeium; also recorded: C. jejuni	
PF-393: peptide having multiple activities (chain 1 DLVQSILSEFKKSG; chain 2 DLVQSILSEFKKSG; Peptide with targeting and/or antimicrobial activity)	E. faecalis (A)	C. jejuni (R)	S. pneumoniae (R)	S. epidermidis (R)	MRSA (C)	G B				S. epidermidis and E. coli and C. albicans and MRSA and S. pneumoniae and C. jejuni	
PF-431: peptide having multiple activities (VAYAAICWW; Peptide with targeting and/or antimicrobial activity)	E. faecalis (R)	C. jejuni (R)	S. pneumoniae (R)	S. epidermidis (M)	MRSA (C)	G B					
PF-456: peptide having multiple activities (chain 1 TCVKPRTIN; chain 2 TCVKPRTIN; Peptide with targeting and/or antimicrobial activity)	E. faecalis (A)	C. jejuni (A)				G B				C. albicans and MRSA and E. faecalis and C. jeikeium and C. jejuni	
PF-470: peptide having multiple activities (chain 1 PYSDSYATRPHWEQHRAR; chain 2 PYSDSYATRPHWEQHRAR; Peptide with targeting and/or antimicrobial activity)	E. faecalis (A)	C. jejuni (A)				G B				M. luteus and E. coli and MRSA and E. faecalis and C. jeikeium and C. jejuni	
PF-581: peptide having multiple activities (WTARARR; Peptide with targeting and/or antimicrobial activity)	E. faecalis (A)	C. jejuni (A)	S. pneumoniae (A)		MRSA (A)	G B					
PF-585: peptide having multiple activities (DYNHLLNVVQDWVNTN; Peptide with targeting and/or antimicrobial activity)	E. faecalis (A)	C. jejuni (R)	S. pneumoniae (R)	S. epidermidis (S)	MRSA (S)	G B				S. epidermidis and E. coli and C. albicans and MRSA and S. pneumoniae and C. jeikeium	
PF-590: peptide having multiple activities (YYQAKLFPLL; Peptide with targeting and/or antimicrobial activity)		C. jejuni (R)				G B				S. epidermidis; also recorded: M. luteus; also recorded: E. coli; also recorded: E. faecalis; also recorded: C. jeikeium	
PF-599: peptide having multiple activities (LFEIFKPKH; Peptide with targeting and/or antimicrobial activity)	E. faecalis (A)	C. jejuni (R)	S. pneumoniae (R)	S. epidermidis (M)	MRSA (C)	G B					S. epidermidis and P. mirabilis and E. coli and C. albicans and MRSA and S. pneumoniae and C. jeikeium
PF-601: peptide having multiple activities (YRVTVKALE; Peptide with targeting and/or antimicrobial activity)	E. faecalis (A)	C. jejuni (A)				G B					C. jeikeium
PF-609: peptide having multiple activities (TEIKLDNNEYLVLNLDDILGILK; Peptide with targeting and/or antimicrobial activity)	E. faecalis (A)	C. jejuni (R)	S. pneumoniae (R)		MRSA (C)	G B					P. mirabilis; also recorded: E. coli; also recorded: S. pneumoniae
PF-614: peptide having multiple activities (GLDIYA; Peptide with targeting and/or antimicrobial activity)	E. faecalis (A)	C. jejuni (R)	S. pneumoniae (R)	S. epidermidis (M)							S. epidermidis; also recorded: E. coli; also recorded: C. jeikeium
VWENRKKYLENEIERHNVFLKLGQEVIKGLNALASRGR [PF-257]						G B	M. luteus (R)	S. epidermidis			
